Experimental data as given in patent US11185531B2, “Arginine methyltransferase inhibitors and uses thereof” (Epizyme, Inc., priority 2013, dated 2021).

How the values were obtained:
[1] = tested on: mono-methyl arginine in RKO cells; test: RKO Methylation Assay, In Cell Western for mono-methyl arginine; type: cell-based; details: Homo sapiens, 72 hours, percent activation of mono-methyl arginine signal
From the text: RKO adherent cells were purchased from ATCC (American Type Culture Collection), Manassas, Va., USA. DMEM/Glutamax medium, penicillin-streptomycin, heat inactivated fetal bovine serum, 0.05% trypsin and D-PBS were purchased from Life Technologies, Grand Island, N.Y., USA. Odyssey blocking buffer, 800 CW goat anti-rabbit IgG (H+L) antibody, and Licor Odyssey infrared scanner were purchased from Licor Biosciences, Lincoln, Nebr., USA. Mono-methyl arginine antibody was purchased from Cell Signaling Technology, Danvers, Mass., USA. Methanol was purchased from VWR, Franklin, Mass., USA. 10% Tween 20 was purchased from KPL, Inc., Gaithersburg, Md., USA. DRAQ5 was purchased from Biostatus Limited, Leicestershire, UK.
RKO adherent cells were maintained in growth medium (DMEM/Glutamax medium supplemented with 10% v/v heat inactivated fetal bovine serum and 100 units/mL penicillin-streptomycin) and cultured at 37° C. under 5% CO2.
Cell Treatment, in Cell Western (ICW) for Detection of Mono-Methyl Arginine and DNA Content.
RKO cells were seeded in assay medium at a concentration of 20,000 cells per mL to a poly-D-lysine coated 384 well culture plate (BD Biosciences 356697) with 50 μL per well. Compound (100 nL) from a 96-well source plate was added directly to 384 well cell plate. Plates were incubated at 37° C., 5% CO2 for 72 hours. After three days of incubation, plates were brought to room temperature outside of the incubator for ten minutes and blotted on paper towels to remove cell media. 50 μL of ice cold 100% methanol was added directly to each well and incubated for 30 min at room temperature. After 30 min, plates were transferred to a Biotek EL406 plate washer and washed 2 times with 100 μL per well of wash buffer (IX PBS). Next 60 μL per well of Odyssey blocking buffer (Odyssey Buffer with 0.1% Tween 20 (v/v)) were added to each plate and incubated 1 hour at room temperature. Blocking buffer was removed and 20 μL per well of primary antibody was added (mono-methyl arginine diluted 1:200 in Odyssey buffer with 0.1% Tween 20 (v/v)) and plates were incubated overnight (16 hours) at 4° C. Plates were washed 5 times with 100 μL per well of wash buffer. Next 20 μL per well of secondary antibody was added (1:200 800 CW goat anti-rabbit IgG (H+L) antibody, 1:1000 DRAQ5 (Biostatus limited) in Odyssey buffer with 0.1% Tween 20 (v/v)) and incubated for 1 hour at room temperature. The plates were washed 5 times with 100 μL per well wash buffer then 2 times with 100 μL per well of water. Plates were allowed to dry at room temperature then imaged on the Licor Odyssey machine which measures integrated intensity at 700 nm and 800 nm wavelengths. Both 700 and 800 channels were scanned.
First, the ratio for each well was determined by:
Each plate included fourteen control wells of DMSO only treatment (minimum activation) as well as fourteen control wells for maximum activation treated with 20 μM of a reference compound. The average of the ratio values for each control type was calculated and used to determine the percent activation for each test well in the plate. Reference compound was serially diluted three-fold in DMSO for a total of nine test concentrations, beginning at 20 μM. Percent activation was determined and EC30 curves were generated using triplicate wells per concentration of compound.

human PRMT6 = target: T1, human PRMT6 (Homo sapiens, UniProt Q96LA8); test: PRMT6 Biochemical Assay (3H-SAM Flashplate, peptide substrate); details: 30 min preincubation
T1 construct: Flag-PRMT6-His was eluted with 200 ug/ml FLAG peptide in the same buffer; made in house; host or cells: HEK 293F cells (BacMam baculovirus, pFastBacMam)
T1 sequence (Q96LA8 with tags, fused parts or gaps): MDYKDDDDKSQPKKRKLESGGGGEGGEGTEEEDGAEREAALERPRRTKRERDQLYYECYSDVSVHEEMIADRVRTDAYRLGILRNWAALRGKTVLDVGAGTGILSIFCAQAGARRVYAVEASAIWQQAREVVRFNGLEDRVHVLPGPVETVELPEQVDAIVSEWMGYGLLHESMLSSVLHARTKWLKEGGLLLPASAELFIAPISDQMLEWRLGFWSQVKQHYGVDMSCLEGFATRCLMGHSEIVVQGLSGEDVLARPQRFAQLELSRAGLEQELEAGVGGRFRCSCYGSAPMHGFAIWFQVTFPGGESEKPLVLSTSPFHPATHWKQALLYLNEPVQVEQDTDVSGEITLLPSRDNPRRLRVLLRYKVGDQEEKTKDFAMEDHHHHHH
From the text: Peptide representative of human histone H4 residues 36-50 was synthesized with an N-terminal linker-affinity tag motif and a C-terminal amide cap by 21st Century Biochemicals. The peptide was purified by high-performance liquid chromatography (HPLC) to greater than 95% purity and confirmed by liquid chromatography mass spectrometry (LC-MS). The sequence was Biot-Ahx-[…]-amide and contained a monomethylated lysine at position 44 (SEQ ID NO:5).
Full-length human PRMT6 (NM_018137.2) transcript clone was amplified from an HEK 293 cDNA library, incorporating a flanking 5′ sequence encoding a FLAG tag ([…]) (SEQ ID NO:6) fused directly to Ser 2 of PRMT6 and a 3′ sequence encoding a hexa His sequence (HHHHHH) fused directly to Asp 375. The amplified gene was subcloned into pFastBacMam (Viva Biotech).
Column was washed with 20 mM imidazole in the same buffer and Flag-PRMT6-His was eluted with 150 mM imidazole. Pooled fractions were dialysed against buffer Ni-A and further purified by anti-flag M2 affinity chromatography. Flag-PRMT6-His was eluted with 200 ug/ml FLAG peptide in the same buffer. Pooled fractions were dialysed in 20 mM Tris, 150 mM NaCl, 10% glycerol and 5 mM 3-mercaptoethanol, pH 7.8. The purity of recovered protein was 95%.
General Procedure for PRMT6 Enzyme Assays on Peptide Substrates.
The assays were all performed in a buffer consisting of 20 mM Bicine (pH=7.6), 1 mM TCEP, 0.005% BSG, and 0.002% Tween 20, prepared on the day of use. Compounds in 100% DMSO (1 ul) were spotted into a polypropylene 384-well V-bottom plates (Greiner) using a Platemate Plus outfitted with a 384-channel head (Thermo Scientific). DMSO (1 ul) was added to Columns 11, 12, 23, 24, rows A-H for the maximum signal control and 1 ul of SAH, a known product and inhibitor of PRMT6, was added to columns 11, 12, 23, 24, rows I-P for the minimum signal control. A cocktail (40 ul) containing the PRMT6 enzyme was added by Multidrop Combi (Thermo-Fisher). The compounds were allowed to incubate with PRMT6 for 30 min at room temperature, then a cocktail (10 ul) containing SAM and peptide was added to initiate the reaction (final volume=51 ul). The final concentrations of the components were as follows: PRMT6 was 1 nM, ^3H-SAM was 200 nM, non-radiolabeled SAM was 250 nM, peptide was 75 nM, SAH in the minimum signal control wells was 1 mM, and the DMSO concentration was 2%. The assays were stopped by the addition of non-radiolabeled SAM (10 ul) to a final concentration of 400 uM, which dilutes the ^3H-SAM to a level where its incorporation into the peptide substrate is no longer detectable. 50 ul of the reaction in the 384-well polypropylene plate was then transferred to a 384-well Flashplate and the biotinylated peptides were allowed to bind to the streptavidin surface for at least 1 hour before being washed once with 0.1% Tween20 in a Biotek ELx405 plate washer. The plates were then read in a PerkinElmer TopCount plate reader to measure the quantity of ^3H-labeled peptide bound to the Flashplate surface, measured as disintegrations per minute (dpm) or alternatively, referred to as counts per minute (cpm).
(§1) Where dpm=disintegrations per minute, cmpd=signal in assay well, and min and max are the respective minimum and maximum signal controls.
(§2) Where top and bottom are the normally allowed to float, but may be fixed at 100 or 0 respectively in a 3-parameter fit. The Hill Coefficient normally allowed to float but may also be fixed at 1 in a 3-parameter fit. Y is the % inhibition and X is the compound concentration.

human PRMT8 = target: T2, human PRMT8 (Homo sapiens, UniProt Q9NR22); test: PRMT8 Biochemical Assay (3H-SAM Flashplate, peptide substrate); details: 30 min preincubation
T2 construct: Full-length human PRMT8 (NM_019854.4) isoform 1 transcript clone; GST (N, cleaved yes); made in house; host or cells: E. coli BL21(DE3) Gold
T2 sequence (Q9NR22 whole entry, canonical isoform): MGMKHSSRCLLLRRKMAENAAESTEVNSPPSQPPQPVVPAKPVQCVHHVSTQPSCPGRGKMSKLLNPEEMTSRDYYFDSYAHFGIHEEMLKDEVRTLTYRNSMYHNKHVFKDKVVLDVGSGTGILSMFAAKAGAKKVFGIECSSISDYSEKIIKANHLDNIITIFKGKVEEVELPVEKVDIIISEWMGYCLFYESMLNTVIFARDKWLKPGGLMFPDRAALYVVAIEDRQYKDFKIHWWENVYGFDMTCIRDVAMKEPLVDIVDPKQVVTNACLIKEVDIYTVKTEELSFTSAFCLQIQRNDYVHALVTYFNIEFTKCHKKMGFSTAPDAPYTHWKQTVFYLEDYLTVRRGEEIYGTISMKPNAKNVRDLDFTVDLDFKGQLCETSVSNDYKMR
From the text: (§3) Peptide representative of human histone H4 residues 31-45 was synthesized with an N-terminal linker-affinity tag motif and a C-terminal amide cap by 21st Century Biochemicals. The peptide was purified by high-performance liquid chromatography (HPLC) to greater than 95% purity and confirmed by liquid chromatography mass spectrometry (LC-MS). The sequence was Biot-Ahx-[…]-amide (SEQ ID NO:8).
The resulting construct encodes an N-terminal GST tag and a thrombin cleavage sequence
GST-tagged PRMT8 was eluted with 50 mM Tris, 2 mM glutathione, pH 7.8. Pooled fractions were cleaved by thrombin (10 U) and dialysed in buffer A. GST was removed by reloading the cleaved protein sample onto glutathione sepharose column and PRMT8 was collected in the flow-through fractions. PRMT8 was purified further by ceramic hydroxyapatite chromatography. The column was washed with 50 mM phosphate buffer, 100 mM NaCl, 5% glycerol, 5 mM 3-mercaptoethanol, pH 7.8 and PRMT8 was eluted by 100 mM phosphate in the same buffer. Protein was concentrated and buffer was exchanged to 50 mM Tris, 300 mM NaCl, 10% glycerol, 5 mM β-mercaptoethanol, pH 7.8 by ultrafiltration. The purity of recovered protein was 89%.
General Procedure for PRMT8 Enzyme Assays on Peptide Substrates.
The assays were all performed in a buffer consisting of 20 mM Bicine (pH=7.6), 1 mM TCEP, 0.005% BSG, and 0.002% Tween 20, prepared on the day of use. Compounds in 100% DMSO (1 ul) were spotted into a polypropylene 384-well V-bottom plates (Greiner) using a Platemate Plus outfitted with a 384-channel head (Thermo Scientific). DMSO (1 ul) was added to Columns 11, 12, 23, 24, rows A-H for the maximum signal control and 1 ul of SAH, a known product and inhibitor of PRMT8, was added to columns 11, 12, 23, 24, rows I-P for the minimum signal control. A cocktail (40 ul) containing the PRMT8 enzyme was added by Multidrop Combi (Thermo-Fisher). The compounds were allowed to incubate with PRMT8 for 30 min at room temperature, then a cocktail (10 ul) containing ^3H-SAM and peptide was added to initiate the reaction (final volume=51 ul). The final concentrations of the components were as follows: PRMT8 was 1.5 nM, ^3H-SAM was 50 nM, non-radiolabeled SAM was 550 nM, peptide was 150 nM, SAH in the minimum signal control wells was 1 mM, and the DMSO concentration was 2%. The assays were stopped by the addition of non-radiolabeled SAM (10 ul) to a final concentration of 400 uM, which dilutes the ^3H-SAM to a level where its incorporation into the peptide substrate is no longer detectable. 50 ul of the reaction in the 384-well polypropylene plate was then transferred to a 384-well Flashplate and the biotinylated peptides were allowed to bind to the streptavidin surface for at least 1 hour before being washed once with 0.1% Tween20 in a Biotek ELx405 plate washer. The plates were then read in a PerkinElmer TopCount plate reader to measure the quantity of ^3H-labeled peptide bound to the Flashplate surface, measured as disintegrations per minute (dpm) or alternatively, referred to as counts per minute (cpm).
as §1, §2

human PRMT1 = target: T3, human PRMT1 (Homo sapiens, UniProt Q99873); test: PRMT1 Biochemical Assay (3H-SAM Flashplate, peptide substrate); details: 30 min preincubation
T3 construct: GST-tagged PRMT1; made in house; host or cells: High Five insect cells (baculovirus)
T3 sequence (Q99873 with tags, fused parts or gaps): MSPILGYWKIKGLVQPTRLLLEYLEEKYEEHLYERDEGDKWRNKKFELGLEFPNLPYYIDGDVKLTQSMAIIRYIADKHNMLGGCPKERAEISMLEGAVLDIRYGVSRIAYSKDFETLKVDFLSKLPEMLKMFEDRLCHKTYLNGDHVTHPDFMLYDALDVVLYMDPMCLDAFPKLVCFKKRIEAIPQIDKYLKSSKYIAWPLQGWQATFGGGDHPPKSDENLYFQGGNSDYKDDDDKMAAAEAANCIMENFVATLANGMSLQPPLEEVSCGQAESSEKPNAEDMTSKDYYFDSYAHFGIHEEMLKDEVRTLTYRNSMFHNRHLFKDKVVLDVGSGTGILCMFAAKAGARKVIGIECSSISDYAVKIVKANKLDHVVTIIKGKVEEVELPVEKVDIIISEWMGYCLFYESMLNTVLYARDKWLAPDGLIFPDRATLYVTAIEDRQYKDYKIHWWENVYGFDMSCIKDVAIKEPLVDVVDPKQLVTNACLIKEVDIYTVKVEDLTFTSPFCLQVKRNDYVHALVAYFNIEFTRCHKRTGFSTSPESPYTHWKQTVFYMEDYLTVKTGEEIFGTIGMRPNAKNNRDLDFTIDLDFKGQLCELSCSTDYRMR
From the text: as §3, with “36-50” for “31-45”, “NO.: 1).” for “NO:8).”
Full-length human PRMT1 isoform 1 (NM_001536.5) transcript clone was amplified from an HEK 293 cDNA library, incorporating flanking 5′ sequence encoding a FLAG tag ([…]) (SEQ ID NO:2) fused directly to Met 1 of PRMT1. The amplified gene was subcloned into pFastBacI (Life Technologies) modified to encode an N-terminal GST tag and a TEV cleavage sequence
GST-tagged PRMT1 was eluted with 50 mM Tris, 2 mM glutathione, pH 7.8, dialysed in buffer A and concentrated to 1 mg/mL. The purity of recovered protein was 73%. Reference: Wasilko, D. J. and S. E. Lee: “TIPS: titerless infected-cells preservation and scale-up” Bioprocess J., 5 (2006), pp. 29-32.
General Procedure for PRMT1 Enzyme Assays on Peptide Substrates.
The assays were all performed in a buffer consisting of 20 mM Bicine (pH=7.6), 1 mM TCEP, 0.005% BSG, and 0.002% Tween 20, prepared on the day of use. Compounds in 100% DMSO (1 ul) were spotted into a polypropylene 384-well V-bottom plates (Greiner) using a Platemate Plus outfitted with a 384-channel head (Thermo Scientific). DMSO (1 ul) was added to Columns 11, 12, 23, 24, rows A-H for the maximum signal control and 1 ul of SAH, a known product and inhibitor of PRMT1, was added to columns 11, 12, 23, 24, rows I-P for the minimum signal control. A cocktail (40 ul) containing the PRMT1 enzyme was added by Multidrop Combi (Thermo-Fisher). The compounds were allowed to incubate with PRMT1 for 30 min at room temperature, then a cocktail (10 ul) containing SAM and peptide was added to initiate the reaction (final volume=51 ul). The final concentrations of the components were as follows: PRMT1 was 0.5 nM, ^3H-SAM was 200 nM, non-radiolabeled SAM was 1.5 uM, peptide was 20 nM, SAH in the minimum signal control wells was 1 mM, and the DMSO concentration was 2%. The assays were stopped by the addition of non-radiolabeled SAM (10 ul) to a final concentration of 300 uM, which dilutes the ^3H-SAM to a level where its incorporation into the peptide substrate is no longer detectable. 50 ul of the reaction in the 384-well polypropylene plate was then transferred to a 384-well Flashplate and the biotinylated peptides were allowed to bind to the streptavidin surface for at least 1 hour before being washed once with 0.1% Tween20 in a Biotek ELx405 plate washer. The plates were then read in a PerkinElmer TopCount plate reader to measure the quantity of ^3H-labeled peptide bound to the Flashplate surface, measured as disintegrations per minute (dpm) or alternatively, referred to as counts per minute (cpm).
as §1, §2

Row | SMILES | EC30 [1] [µM] | IC50 (human PRMT6) [µM] | IC50 (human PRMT8) [µM] | IC50 (human PRMT1) [µM]
1 | CN(CCN)Cc1c[nH]nc1C(C)(C)C [Compound 27] | > 12 | 1.01 to 3 |  | 
2 | CNCCN(C)Cc1c[nH]nc1C1CCN(C(=O)CC(C)C)CC1 [Compound 40, 3-methyl-1-(4-(4-((methyl(2-(methylamino)ethyl)amino)methyl)-1H-pyrazol-3-yl)piperidin-1-yl)butan-1-one] |  | < 0.1 | 0.101 to 1 | 
3 | CN(CCN)Cc1c[nH]nc1C1CC1 [Compound 12] |  | 1.01 to 3 |  | 1.01 to 3
4 | CN(CCN)Cc1c[nH]nc1C1CCC(N2CCOCC2)CC1 (centres unmarked) [Compound 43, N^1-methyl-N^1-((3-(4-morpholinocyclohexyl)-1H-pyrazol-4-yl)methyl)ethane-1,2-diamine] | < 3 | < 0.1 |  | 
